Laboratory results from US11607414B2, “Small molecule inhibitors of EGFR and PI3K” (The Regents of the University of Michigan, priority 2014, dated 2023).

Columns and labels:
[1] = tested on: KRAS mutant HCT-116 cells; experiment: HCT-116 cell viability / proliferation (Cell Titer Glo); assay type: cell-based
Method: Cell proliferation was determined using the Cell Titer Glo assay (Promega, Madison, Wis.). Cell lines were seeded at a density between 2,000 and 5,000 cells per well in a 96-well plate. Twenty four hours after plating, cells were dosed with varying concentrations of drug, either as a single agent or in combination. The signal for Cell Titer Glo was determined 72 or 96 hours after dosing.

[2] = target: EGFR (Homo sapiens, UniProt P00533); experiment: Z'-LYTE biochemical kinase assay, EGFR
Chain of EGFR (P00533 25-1210): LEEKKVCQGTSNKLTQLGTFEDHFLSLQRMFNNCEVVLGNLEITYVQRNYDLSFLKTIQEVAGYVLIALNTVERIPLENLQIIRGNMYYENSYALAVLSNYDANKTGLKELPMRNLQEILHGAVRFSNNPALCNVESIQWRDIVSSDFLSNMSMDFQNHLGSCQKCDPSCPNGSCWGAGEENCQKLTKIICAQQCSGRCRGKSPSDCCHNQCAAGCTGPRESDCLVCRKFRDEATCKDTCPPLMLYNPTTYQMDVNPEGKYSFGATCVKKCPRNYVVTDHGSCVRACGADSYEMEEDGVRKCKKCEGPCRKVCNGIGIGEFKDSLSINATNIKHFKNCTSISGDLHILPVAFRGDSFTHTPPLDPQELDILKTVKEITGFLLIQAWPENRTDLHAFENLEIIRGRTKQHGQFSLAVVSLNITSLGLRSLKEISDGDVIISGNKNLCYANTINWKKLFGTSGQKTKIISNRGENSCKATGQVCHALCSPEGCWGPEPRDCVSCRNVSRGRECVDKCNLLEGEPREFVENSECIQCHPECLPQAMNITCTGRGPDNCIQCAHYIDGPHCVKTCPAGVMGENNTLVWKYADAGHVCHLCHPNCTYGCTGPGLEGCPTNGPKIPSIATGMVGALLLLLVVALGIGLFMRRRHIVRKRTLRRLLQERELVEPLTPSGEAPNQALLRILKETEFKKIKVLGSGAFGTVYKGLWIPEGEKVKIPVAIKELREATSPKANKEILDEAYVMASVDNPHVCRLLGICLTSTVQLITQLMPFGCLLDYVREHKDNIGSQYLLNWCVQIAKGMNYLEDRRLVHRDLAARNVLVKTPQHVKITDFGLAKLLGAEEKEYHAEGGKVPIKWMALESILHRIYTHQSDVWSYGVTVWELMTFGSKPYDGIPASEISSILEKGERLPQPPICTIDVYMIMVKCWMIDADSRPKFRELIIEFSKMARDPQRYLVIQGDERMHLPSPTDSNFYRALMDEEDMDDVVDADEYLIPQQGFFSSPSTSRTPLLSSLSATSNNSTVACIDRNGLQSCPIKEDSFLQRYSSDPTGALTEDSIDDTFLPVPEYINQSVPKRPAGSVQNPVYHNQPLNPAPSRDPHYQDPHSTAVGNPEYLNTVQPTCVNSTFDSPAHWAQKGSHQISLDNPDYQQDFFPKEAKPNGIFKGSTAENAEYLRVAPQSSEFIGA
Method: Various compounds were tested for their ability to inhibit EGFR and PIK3CA. The assays determining inhibitions are given in Example 2 Assays-Z′-LYTE® and ADAPTA.
Assays: The Z′-LYTE® biochemical assay employs a fluorescence-based, coupled-enzyme format and is based on the differential sensitivity of phosphorylated and non-phosphorylated peptides to proteolytic cleavage (FIG. 6). The peptide substrate is labeled with two fluorophores—one at each end— that make up a FRET pair. In the primary reaction, the kinase transfers the gamma-phosphate of ATP to a single tyrosine, serine or threonine residue in a synthetic FRET-peptide. […] A ratiometric method, which calculates the ratio (the Emission Ratio) of donor emission to acceptor emission after excitation of the donor fluorophore at 400 nm, is used to quantitate reaction progress.
A significant benefit of this ratiometric method for quantitating reaction progress is the elimination of well-to-well variations in FRET-peptide concentration and signal intensities. […]
Both cleaved and uncleaved FRET-peptides contribute to the fluorescence signals and therefore to the Emission Ratio. The extent of phosphorylation of the FRET-peptide can be calculated from the Emission Ratio. […]
Bar-coded Corning, low volume NBS, black 384-well plate (Corning Cat. 4514) 1. […] Read on fluorescence plate reader and analyze the data.

Structure (SMILES): CS(=O)(=O)Nc1cncc(-c2ccc3ncnc(Nc4cccc(Cl)c4)c3c2)c1 [MOL-162, N-(5-(4-((3-chlorophenyl)amino)quinazolin-6-yl)pyridin-3-yl)methanesulfonamide]
- cytotoxicity [1]: cytotoxicity
- inhibition of / potency against purified EGFR (in words) [2]: potent dual inhibition
